Laboratory results published in US20140343000A1 (priority 2011, published 2014).
pEC50: −log10 of the molar value.

These compounds were tested on recombinant NL4-3 virus (Renilla luciferase in nef, Gag P373S; NLRluc) in MT-2 cells (assay: whole plant or invertebrate). Conditions: Renilla, NL43, luciferase activity in cells infected for 4-5 days with NLRluc recombinants, serial dilutions of inhibitor; class symbols (key in Table 1); read-out: EC50.
Format: cell-based, HIV
How it was run: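 MT-2 cells in RPMI 1640 with 10% heat-inactivated FBS were infected with the reporter virus, made by transfecting the proviral clone into 293T cells, and cultured 4-5 days with serial inhibitor dilutions. Antiviral activity was quantified from Renilla luciferase activity measured in lysed cells.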

| SMILES | pEC50 |
| --- | --- |
| C=C(C)[C@@H]1CC[C@]2(NC(=O)CN3CCN(CCO)CC3)CC[C@]3(C)[C@H](CC[C@@H]4[C@@]5(C)CC=C(c6ccc(C(=O)O)cc6)C(C)(C)[C@@H]5CC[C@]43C)[C@@H]12 [Example 84, 4-((1R,3aS,5aR,5bR,7aR,11aS,11bR,13aR,13bR)-3a-(2-(4-(2-hydroxyethyl)piperazin-1-yl)acetamido)-5a,5b,8,8,11a-pentamethyl-1-(prop-1-en-2-yl)-2,3,3a,4,5,5a,5b,6,7,7a,8,11,11a,11b,12,13,13a,13b-octadecahydro-1H-cyclopenta[a]chrysen-9-yl)benzoic acid] | > 7.00 |
| C=C(C)[C@@H]1CC[C@]2(NC(=O)CN3CCN(CC)CC3)CC[C@]3(C)[C@H](CC[C@@H]4[C@@]5(C)CC=C(c6ccc(C(=O)O)cc6)C(C)(C)[C@@H]5CC[C@]43C)[C@@H]12 [Example 85, 4-((1R,3aS,5aR,5bR,7aR,11aS,11bR,13aR,13bR)-3a-(2-(4-ethylpiperazin-1-yl)acetamido)-5a,5b,8,8,11a-pentamethyl-1-(prop-1-en-2-yl)-2,3,3a,4,5,5a,5b,6,7,7a,8,11,11a,11b,12,13,13a,13b-octadecahydro-1H-cyclopenta[a]chrysen-9-yl)benzoic acid] | > 7.00 |
| C=C(C)[C@@H]1CC[C@]2(NC(=O)CN(C)CCOC)CC[C@]3(C)[C@H](CC[C@@H]4[C@@]5(C)CC=C(c6ccc(C(=O)O)cc6)C(C)(C)[C@@H]5CC[C@]43C)[C@@H]12 [Example 86, 4-((1R,3aS,5aR,5bR,7aR,11aS,11bR,13aR,13bR)-3a-(2-((2-methoxyethyl)(methyl)amino)acetamido)-5a,5b,8,8,11a-pentamethyl-1-(prop-1-en-2-yl)-2,3,3a,4,5,5a,5b,6,7,7a,8,11,11a,11b,12,13,13a,13b-octadecahydro-1H-cyclopenta[a]chrysen-9-yl)benzoic acid] | > 7.00 |
| C=C(C)[C@@H]1CC[C@]2(NC(=O)Cn3cc(-c4ccccc4)cn3)CC[C@]3(C)[C@H](CC[C@@H]4[C@@]5(C)CC=C(c6ccc(C(=O)O)cc6)C(C)(C)[C@@H]5CC[C@]43C)[C@@H]12 [Example 87, 4-((1R,3aS,5aR,5bR,7aR,11aS,11bR,13aR,13bR)-5a,5b,8,8,11a-pentamethyl-3a-(2-(4-phenyl-1H-pyrazol-1-yl)acetamido)-1-(prop-1-en-2-yl)-2,3,3a,4,5,5a,5b,6,7,7a,8,11,11a,11b,12,13,13a,13b-octadecahydro-1H-cyclopenta[a]chrysen-9-yl)benzoic acid] | > 7.00 |
| C=C(C)[C@@H]1CC[C@]2(NC(=O)Cn3ccnn3)CC[C@]3(C)[C@H](CC[C@@H]4[C@@]5(C)CC=C(c6ccc(C(=O)O)cc6)C(C)(C)[C@@H]5CC[C@]43C)[C@@H]12 [Example 88, 4-((1R,3aS,5aR,5bR,7aR,11aS,11bR,13aR,13bR)-3a-(2-(1H-1,2,3-triazol-1-yl)acetamido)-5a,5b,8,8,11a-pentamethyl-1-(prop-1-en-2-yl)-2,3,3a,4,5,5a,5b,6,7,7a,8,11,11a,11b,12,13,13a,13b-octadecahydro-1H-cyclopenta[a]chrysen-9-yl)benzoic acid] | > 7.00 |
| C=C(C)[C@@H]1CC[C@]2(NC(=O)Cn3ccnc3)CC[C@]3(C)[C@H](CC[C@@H]4[C@@]5(C)CC=C(c6ccc(C(=O)O)cc6)C(C)(C)[C@@H]5CC[C@]43C)[C@@H]12 [Example 89, 4-((1R,3aS,5aR,5bR,7aR,11aS,11bR,13aR,13bR)-3a-(2-(1H-imidazol-1-yl)acetamido)-5a,5b,8,8,11a-pentamethyl-1-(prop-1-en-2-yl)-2,3,3a,4,5,5a,5b,6,7,7a,8,11,11a,11b,12,13,13a,13b-octadecahydro-1H-cyclopenta[a]chrysen-9-yl)benzoic acid] | > 7.00 |
| C=C(C)[C@@H]1CC[C@]2(NC(=O)C(C)N3CCS(=O)(=O)CC3)CC[C@]3(C)[C@H](CC[C@@H]4[C@@]5(C)CC=C(c6ccc(C(=O)O)cc6)C(C)(C)[C@@H]5CC[C@]43C)[C@@H]12 (stereo partly drawn) [Example 93, benzoic acid, 4-[(1R,3aS,5aR,5bR,7aR,11aS,11bR,13aR,13bR)-3a-[[2-(1,1-dioxido-4-thiomorpholinyl)-1-oxopropyl]amino]-2,3,3a,4,5,5a,5b,6,7,7a,8,11,11a,11b,12,13,13a,13b-octadecahydro-5a,5b,8,8,11a-pentamethyl-1-(1-methylethenyl)-1H-cyclopenta[a]chrysen-9-yl]] | > 7.00 |
| C=C(C)[C@@H]1CC[C@]2(NC(=O)CN3CC(F)(F)C3)CC[C@]3(C)[C@H](CC[C@@H]4[C@@]5(C)CC=C(c6ccc(C(=O)O)cc6)C(C)(C)[C@@H]5CC[C@]43C)[C@@H]12 [Example 94, 4-((1R,3aS,5aR,5bR,7aR,11aS,11bR,13aR,13bR)-3a-(2-(3,3-difluoroazetidin-1-yl)acetamido)-5a,5b,8,8,11a-pentamethyl-1-(prop-1-en-2-yl)-2,3,3a,4,5,5a,5b,6,7,7a,8,11,11a,11b,12,13,13a,13b-octadecahydro-1H-cyclopenta[a]chrysen-9-yl)benzoic acid] | > 7.00 |
| C=C(C)[C@@H]1CC[C@]2(NC(=O)CN3CCCC3=O)CC[C@]3(C)[C@H](CC[C@@H]4[C@@]5(C)CC=C(c6ccc(C(=O)O)cc6)C(C)(C)[C@@H]5CC[C@]43C)[C@@H]12 [Example 95, 4-((1R,3aS,5aR,5bR,7aR,11aS,11bR,13aR,13bR)-5a,5b,8,8,11a-pentamethyl-3a-(2-(2-oxopyrrolidin-1-yl)acetamido)-1-(prop-1-en-2-yl)-2,3,3a,4,5,5a,5b,6,7,7a,8,11,11a,11b,12,13,13a,13b-octadecahydro-1H-cyclopenta[a]chrysen-9-yl)benzoic acid] | > 7.00 |
| C=C(C)[C@@H]1CC[C@]2(NC(=O)CN3CCN(C(C)C)CC3)CC[C@]3(C)[C@H](CC[C@@H]4[C@@]5(C)CC=C(c6ccc(C(=O)O)cc6)C(C)(C)[C@@H]5CC[C@]43C)[C@@H]12 [Example 96, 4-((1R,3aS,5aR,5bR,7aR,11aS,11bR,13aR,13bR)-3a-(2-(4-isopropylpiperazin-1-yl)acetamido)-5a,5b,8,8,11a-pentamethyl-1-(prop-1-en-2-yl)-2,3,3a,4,5,5a,5b,6,7,7a,8,11,11a,11b,12,13,13a,13b-octadecahydro-1H-cyclopenta[a]chrysen-9-yl)benzoic acid] | > 7.00 |
| C=C(C)[C@@H]1CC[C@]2(NC(=O)CN3CCOCC3)CC[C@]3(C)[C@H](CC[C@@H]4[C@@]5(C)CC=C(c6ccc(C(=O)O)cc6)C(C)(C)[C@@H]5CC[C@]43C)[C@@H]12 [Example 97, 4-((1R,3aS,5aR,5bR,7aR,11aS,11bR,13aR,13bR)-5a,5b,8,8,11a-pentamethyl-3a-(2-morpholinoacetamido)-1-(prop-1-en-2-yl)-2,3,3a,4,5,5a,5b,6,7,7a,8,11,11a,11b,12,13,13a,13b-octadecahydro-1H-cyclopenta[a]chrysen-9-yl)benzoic acid] | > 7.00 |
| C=C(C)[C@@H]1CC[C@]2(NC(=O)CN3CCSCC3)CC[C@]3(C)[C@H](CC[C@@H]4[C@@]5(C)CC=C(c6ccc(C(=O)O)cc6)C(C)(C)[C@@H]5CC[C@]43C)[C@@H]12 [Example 98, 4-((1R,3aS,5aR,5bR,7aR,11aS,11bR,13aR,13bR)-5a,5b,8,8,11a-pentamethyl-1-(prop-1-en-2-yl)-3a-(2-thiomorpholinoacetamido)-2,3,3a,4,5,5a,5b,6,7,7a,8,11,11a,11b,12,13,13a,13b-octadecahydro-1H-cyclopenta[a]chrysen-9-yl)benzoic acid] | > 7.00 |
| C=C(C)[C@@H]1CC[C@]2(NC(=O)C(CC3CCCCC3)N3CCS(=O)(=O)CC3)CC[C@]3(C)[C@H](CC[C@@H]4[C@@]5(C)CC=C(c6ccc(C(=O)O)cc6)C(C)(C)[C@@H]5CC[C@]43C)[C@@H]12 (stereo partly drawn) [Example 99, benzoic acid, 4-[(1R,3aS,5aR,5bR,7aR,11aS,11bR,13aR,13bR)-3a-[[3-cyclohexyl-2-(1,1-dioxido-4-thiomorpholinyl)-1-oxopropyl]amino]-2,3,3a,4,5,5a,5b,6,7,7a,8,11,11a,11b,12,13,13a,13b-octadecahydro-5a,5b,8,8,11a-pentamethyl-1-(1-methylethenyl)-1H-cyclopenta[a]chrysen-9-yl]] | > 7.00 |
| C=C(C)[C@@H]1CC[C@]2(NC(=O)CN(C)C3CCS(=O)(=O)C3)CC[C@]3(C)[C@H](CC[C@@H]4[C@@]5(C)CC=C(c6ccc(C(=O)O)cc6)C(C)(C)[C@@H]5CC[C@]43C)[C@@H]12 (stereo partly drawn) [Example 100, benzoic acid, 4-[(1R,3aS,5aR,5bR,7aR,11aS,11bR,13aR,13bR)-2,3,3a,4,5,5a,5b,6,7,7a,8,11,11a,11b,12,13,13a,13b-octadecahydro-5a,5b,8,8,11a-pentamethyl-1-(1-methylethenyl)-3a-[[[methyl(tetrahydro-1,1-dioxido-3-thienyl)amino]acetyl]amino]-1H-cyclopenta[a]chrysen-9-yl]] | > 7.00 |

Same assay, conditions: Renilla, NL43, luciferase activity in cells infected for 4-5 days with NLRluc recombinants, serial dilutions of inhibitor; numeric values; read-out: EC50

| SMILES | pEC50 |
| --- | --- |
| C=C(C)[C@@H]1CC[C@]2(NC(=O)Cn3ccc4ccccc43)CC[C@]3(C)[C@H](CC[C@@H]4[C@@]5(C)CC=C(c6ccc(C(=O)O)cc6)C(C)(C)[C@@H]5CC[C@]43C)[C@@H]12 [Example 90, 4-((1R,3aS,5aR,5bR,7aR,11aS,11bR,13aR,13bR)-3a-(2-(1H-indol-1-yl)acetamido)-5a,5b,8,8,11a-pentamethyl-1-(prop-1-en-2-yl)-2,3,3a,4,5,5a,5b,6,7,7a,8,11,11a,11b,12,13,13a,13b-octadecahydro-1H-cyclopenta[a]chrysen-9-yl)benzoic acid] | 7.70 |

Same assay, conditions: luciferase activity in cells infected for 4-5 days with NLRluc recombinants, serial dilutions of inhibitor; class symbols (key in Table 1); read-out: EC50

| SMILES | pEC50 |
| --- | --- |
| C=C(C)[C@@H]1CC[C@]2(NC(=O)CC(c3cccs3)N3CCS(=O)(=O)CC3)CC[C@]3(C)[C@H](CC[C@@H]4[C@@]5(C)CC=C(c6ccc(C(=O)O)cc6)C(C)(C)[C@@H]5CC[C@]43C)[C@@H]12 (stereo partly shown) [Example 101] | > 7.00 |
